According to paper PMC9157788, “Design, Synthesis, and Apoptosis-Promoting Effect Evaluation of Rhopaladins’ Analog 4-Arylidene-5-Oxopyrrolidine Derivatives” (Frontiers in Chemistry, 2022):

Test system: C-33A cells
Assay: MTT cell viability assay, C-33A
Format: cell-based
Conditions: Homo sapiens, 48 h, read-out: Half inhibitory concentration (IC50), C-33A
Experimental: HepG2 (human epidermoid hepatocellular carcinoma cell), 7402 (human epidermoid hepatocellular carcinoma cell), C-33A (human epidermoid cervical carcinoma cell), and HeLa (human epidermoid cervical adenocarcinoma cell) were incubated in Dulbecco’s modified Eagle’s medium (DMEM), which was purchased from Gibco (Grand Island, NY, United States). SiHa cells (human epidermoid cervical squamous cell carcinoma) were incubated in minimum essential medium (MEM, also from Gibco). CaSki (human epidermoid cervical carcinoma cell) and LO2 (human normal liver cell) were incubated in minimum essential medium (MEM, also from Gibco). All cells were maintained at 37°C in a humidified incubator with 5% carbon dioxide, and the media contained 10% fetal bovine serum (FBS, Corning, United States) and 1% penicillin–streptomycin antibiotic solution (Corning, United States). SiHa and CaSki were bought from the China Center for Type Culture Collection (CCTCC). The other five types of cancer cell lines were obtained from the Experiment Center of Medicine, Sinopharm Dongfeng Hospital, Hubei University of Medicine. The compounds were dissolved in dimethyl sulfoxide (DMSO, MP Biomedicals, United States), and cisplatin was purchased from Aladdin, Shanghai, China. The control (0 μM) group was treated with DMSO only in the same conditions, and the DMSO content in the medium was less than 0.1%.
Cell viability was measured by a 3-(4,5-dimethylthiazol-2-yl)-2,5-diphenyltetrazolium bromide (MTT, MultiSciences, China) assay. The specific experimental steps referred to our previous research ([Zhu et al., 2020]). For each cell line, cells were digested and seeded in 96-well plates at a density of 1 × 10^3 cells/well. […] Then, the formed formazan crystals were dissolved in DMSO, and the plates were estimated in a […] microplate reader (BioTek Inc., Bio-Tek MQX200) at a wavelength of 490 nm. Optical density (OD) values were obtained, and the inhibition rate and IC50 of each compound on different cells were calculated by GraphPad Prism 8.0.1 software. […]

Q: `O=C1/C(=C/c2ccc(Cl)cc2)CC(/C=C/c2ccc(Cl)cc2)(C(=O)NC2CCCCC2)N1c1ccc(F)cc1` (stereo not shown) [RPDPRH, (2E, 4E)-4-(4-chlorobenzylidene)-2-(4-chlorostyryl)-N-cyclohexyl-1-(4-fluorophenyl)-5-oxopyrrolidine-2-carboxamide] was tested. Which IC50 did it give?
A: 4.66 µM
